Entries after “also recorded” stand apart in the source; their conditions may differ.
Experiments:
[1] = system: hypothalamic cells of the apoaequorin-expressing mice; experiment: Intracellular calcium ion increase (aequorin luminescence), hypothalamus; format: cell-based, mouse; settings: for increase of intracellular calcium concentration in hypothalamic cells (RLU per second): added at 25 seconds; for luminescence (intracellular calcium ion increase) in hypothalamus: peptide at final concentrations of 1 μmol/L and 5 μmol/L
Description: (§1) A hypothalamus, pituitary gland, kidney, heart, blood vessel, or a portion of brain tissue is collected from transgenic mice systemically expressing apoaequorin (WO02/010371) produced by introducing an apoaequorin gene expression vector into fertilized eggs. The obtained hypothalamus, pituitary gland, kidney, heart, blood vessel, or brain tissue is cut finely into pieces, suspended in a medium containing coelenterazine, and then incubated to incorporate coelenterazine into the cells to form aequorin (a complex of apoaequorin and coelenterazine). Since aequorin luminesces upon binding to intracellular calcium ions, the relative luminescence level in cells before and after addition of a medium containing the peptide or a pharmaceutically acceptable salt thereof is measured in a luminometer every second over time and is used as an indicator of intracellular calcium ion concentration. Increase in the relative luminescence level due to addition of the peptide or pharmaceutically acceptable salt thereof confirms that the peptide or pharmaceutically acceptable salt thereof has the activity to increase intracellular calcium ion concentration.
(§2) Whether Peptides 1 to 8 synthesized in Example 2 have the activity of increasing intracellular calcium ion concentration was investigated using the organs of transgenic mice introduced with the apoaequorin gene and systemically expressing apoaequorin (hereinafter referred to as apoaequorin-expressing mice). In apoaequorin-expressing mouse cells, light is emitted when apoaequorin binds to a calcium ion in the presence of the luminescent substrate coelenterazine and thus the intracellular calcium ion concentration can be monitored. Patent Document (WO02/010371) discloses the method for producing apoaequorin-expressing mice, method for evaluating biologically active substances that use biological samples derived from the mice, and experimental results of evaluating biologically active peptides using the mouse organs as shown below. […] Therefore, apoaequorin-expressing mice can be used in the evaluation of the physiological activities of novel peptides.
(§3) Apoaequorin-expressing mice were produced according to the method disclosed in Reference Example 4 of Patent Document (WO02/010371). The apoaequorin-expressing mice were sacrificed, individual organs including thymus, hypothalamus, spleen, bone, aorta, heart, kidney, adrenal gland, pancreas, pituitary gland, uterus, medulla oblongata, and spinal cord were removed; and each of the organs was cut into small cubes of approximately 1 to 2 mm^3. Next, in 5-mL tubes (Rohren-Tubes; manufactured by Sarstedt, No. 55.476), three portions of each of the prepared organs were added to 50 μL of a 10 μmol/L solution of coelenterazine (manufactured by Molecular Probes) dissolved in RPMI 1640 medium, and these were cultured at 37° C. for three hours. After culturing, RPMI 1640 medium was added, and then Peptides 1 to 5 dissolved in RPMI 1640 medium were added 25 seconds after the addition of RPMI 1640 until each peptide had final concentrations of 1 μmol/L and of 5 μmol/L, and the relative luminescence levels were measured every second immediately after the addition of RPMI 1640 medium by using a luminometer (AutoLumat LB953, manufactured by Berthold).

[2] = system: pituitary cells of the apoaequorin-expressing mice; experiment: Intracellular calcium ion increase (aequorin luminescence), pituitary gland; format: cell-based, mouse; settings: for increase of intracellular calcium concentration in pituitary cells (RLU per second): added at 25 seconds; for luminescence (intracellular calcium ion increase) in pituitary gland: peptide at final concentrations of 1 μmol/L and 5 μmol/L
Description: as §1, §2, §3

[3] = system: thymus of apoaequorin-expressing mice; experiment: Intracellular calcium ion increase (aequorin luminescence), thymus; format: cell-based, mouse; settings: peptide at final concentrations of 1 μmol/L and 5 μmol/L
Description: as §1, §2
(§4) Apoaequorin-expressing mice were produced according to the method disclosed in Reference Example 4 of Patent Document (WO02/010371). […] After culturing, RPMI 1640 medium was added, and then Peptides 1 to 5 dissolved in RPMI 1640 medium were added 25 seconds after the addition of RPMI 1640 until each peptide had final concentrations of 1 μmol/L and of 5 μmol/L, and the relative luminescence levels were measured every second immediately after the addition of RPMI 1640 medium by using a luminometer (AutoLumat LB953, manufactured by Berthold).

[4] = system: medulla oblongata of apoaequorin-expressing mice; experiment: Intracellular calcium ion increase (aequorin luminescence), medulla oblongata; format: cell-based, mouse; settings: peptide at final concentrations of 1 μmol/L and 5 μmol/L
Description: as §1, §2, §3

[5] = system: cardiac cells of the apoaequorin-expressing mice; experiment: Intracellular calcium ion increase (aequorin luminescence), heart; format: cell-based, mouse; settings: for luminescence (intracellular calcium ion increase) in heart: peptide at final concentrations of 1 μmol/L and 5 μmol/L
Description: as §1, §2, §3

[6] = system: kidney cells of the apoaequorin-expressing mice; experiment: Intracellular calcium ion increase (aequorin luminescence), kidney; format: cell-based, mouse
Description: as §1, §2, §3

[7] = system: spleen of apoaequorin-expressing mice; experiment: Intracellular calcium ion increase (aequorin luminescence), spleen; format: cell-based, mouse; settings: peptide at final concentrations of 1 μmol/L and 5 μmol/L
Description: as §1, §2, §4

[8] = system: uterus of apoaequorin-expressing mice; experiment: Intracellular calcium ion increase (aequorin luminescence), uterus; format: cell-based, mouse; settings: peptide at final concentrations of 1 μmol/L and 5 μmol/L
Description: (§5) A hypothalamus, pituitary gland, kidney, heart, blood vessel, or a portion of brain tissue is collected from transgenic mice systemically expressing apoaequorin (WO02/010371) produced by introducing an apoaequorin gene expression vector into fertilized eggs. The obtained hypothalamus, pituitary gland, kidney, heart, blood vessel, or brain tissue is cut finely into pieces, suspended in a medium containing coelenterazine, and then incubated to incorporate coelenterazine into the cells to form aequorin (a complex of apoaequorin and coelenterazine). Since aequorin luminesces upon binding to intracellular calcium ions, the relative luminescence level in cells before and after addition of a medium containing the peptide or a pharmaceutically acceptable salt thereof is measured in a luminometer every second over time and is used as an indicator of intracellular calcium ion concentration. Increase in the relative luminescence level due to addition of the peptide or pharmaceutically acceptable salt thereof confirms that the peptide or pharmaceutically acceptable salt thereof has the activity to increase intracellular calcium ion concentration. […]

[9] = system: aortic cells of the apoaequorin-expressing mice; experiment: Intracellular calcium ion increase (aequorin luminescence), aorta; format: cell-based, mouse
Description: as §1, §2, §4

[10] = system: nerve endings in the posterior pituitary gland of AVP-eGFP Tg rats; experiment: Continuous measurement of AVP-eGFP fluorescence in rat posterior pituitary gland (vasopressin release); format: cell-based; settings: peptide at final concentration of 10^−6 M in perfusate, last five minutes; control (basal) taken as 1
Source text: In transgenic (Tg) rats produced using a fusion gene, which is a vasopressin (arginine vasopressin: AVP) gene inserted with the enhanced green fluorescent protein (eGFP) gene, eGFP is expressed specifically in AVP neurons of the hypothalamus-pituitary system and their axons (Ueta et al., Endocrinology, 146, 406-413, 2005). Vasopressin secretion-promoting activity can be measured using pituitary gland excised from such AVP-eGFP Tg rats.
The pituitary gland is excised from an AVP-eGFP Tg rat and placed in a chamber of a perfusion apparatus filled with perfusate (140 mM NaCl, 5 mM KCl, 10 mM HEPES, 10 mM glucose, 1.2 mM KH2PO4, 1.2 mM MgCl2, 2 mM CaCl2; the pH and osmotic pressure are adjusted to 7.37 and 295 to 300 mOsml, respectively). Laser beam (488 nm) from an excitation light irradiation device (^161C; manufactured by Spectra Physics), is irradiated onto the posterior pituitary gland through an optical fiber (GIF625-100; manufactured by Thorlabs). The eGFP fluorescent light as a result of excitation at nerve endings in the posterior pituitary gland is collected by a phototube (R6249HA; Hamamatsu Photonics) through another optical fiber. After conversion into an electric signal, it can be amplified with an amplifier (C7246; manufactured by Hamamatsu Photonics) to observe the change in the eGFP fluorescence. The amount of change serves as an indicator for the amount of change of AVP-eGFP present in the pituitary gland, and the vasopressin secretion-promoting activity of the VGF-related peptide or a pharmaceutically acceptable salt thereof can be measured.
Specifically, the recording time is set to 10 minutes. As a control (basal), only the perfusate is administered in the first five minutes. Then, a mixture of the perfusate and the VGF-related peptide or a pharmaceutically acceptable salt thereof prepared to have a final concentration of 10^−6 M is administered in the last five minutes. The amount of vasopressin secreted from the pituitary gland can be measured by observing changes in the eGFP fluorescence. […]

[11] = system: spinal cord of apoaequorin-expressing mice; experiment: Intracellular calcium ion increase (aequorin luminescence), spinal cord; format: cell-based, mouse; settings: peptide at final concentrations of 1 μmol/L and 5 μmol/L
Description: as §5

[12] = 1 μmol/L peptide, added at 25 seconds
[13] = peptide at final concentrations of 1 μmol/L and 5 μmol/L

Substance	increase of intracellular calcium concentration in hypothalamic cells (RLU per second) ([1]; 5 μmol/L peptide)	luminescence (intracellular calcium ion increase) in hypothalamus [1]	increase of intracellular calcium concentration in pituitary cells (RLU per second) ([2]; 5 μmol/L peptide)	luminescence (intracellular calcium ion increase) in pituitary gland [2]	luminescence (intracellular calcium ion increase) in thymus [3]	luminescence (intracellular calcium ion increase) in medulla oblongata [4]	luminescence (intracellular calcium ion increase) in heart [5]	increase of intracellular calcium concentration in kidney cells (RLU per second) [6, 12]	luminescence (intracellular calcium ion increase) in kidney [6, 13]	luminescence (intracellular calcium ion increase) in spleen [7]	luminescence (intracellular calcium ion increase) in uterus [8]	increase of intracellular calcium concentration in aortic cells (RLU per second) [9, 12]	luminescence (intracellular calcium ion increase) in aorta [9, 13]	vasopressin release from nerve endings in the posterior pituitary gland (change in eGFP fluorescence) [10]	increase of intracellular calcium concentration in hypothalamic cells (RLU per second) ([1]; 1 μmol/L peptide)	increase of intracellular calcium concentration in pituitary cells (RLU per second) ([2]; 1 μmol/L peptide)	increase of intracellular calcium concentration in cardiac cells (RLU per second) ([5]; 5 μmol/L peptide, added at 25 seconds)	luminescence (intracellular calcium ion increase) in spinal cord [11]
Peptide 6: amino acid sequence at position 353 to 372 in rat VGF (GLQETQQERENEREEEAEQE; synthetic Peptide 6, VGF-related peptide, rat VGF positions 353-372)	increase of intracellular calcium concentration	luminescence was observed	increase of intracellular calcium concentration	luminescence was observed	luminescence was observed	luminescence was observed	luminescence was observed	increase of intracellular calcium concentration	luminescence was observed	luminescence was observed	luminescence was observed	increase of intracellular calcium concentration	luminescence was observed	–	–	–	–	–
Peptide 12: amino acid sequence at position 556 to 585 in rat VGF (TLQPPASSRRRHFHHALPPARHHPDLEAQA; synthetic Peptide 12, VGF-related peptide, rat VGF positions 556-585)	–	–	increase of intracellular calcium concentration	luminescence was observed	–	–	–	–	–	–	–	–	–	reduced eGFP fluorescence; also recorded: vasopressin release	–	–	–	–
Peptide 11: amino acid sequence at position 533 to 552 in human VGF (EEDEVYPPGPYHPFPNYIRP; synthetic Peptide 11, VGF-related peptide, human VGF positions 533-552)	–	luminescence was observed	increase of intracellular calcium concentration	luminescence was observed	–	–	–	–	–	–	–	–	–	reduced eGFP fluorescence; also recorded: vasopressin release	increase of intracellular calcium concentration	–	–	–
Peptide 1: amino acid sequence at position 177 to 206 in human VGF (QQETAAAETETRTHTLTRVNLESPGPERVW; synthetic Peptide 1, VGF-related peptide, human VGF positions 177-206)	–	luminescence was observed	increase of intracellular calcium concentration	luminescence was observed	luminescence was observed	luminescence was observed	–	–	–	–	–	–	–	reduced eGFP fluorescence; also recorded: vasopressin release	increase of intracellular calcium concentration	–	–	–
Peptide 8: amino acid sequence at position 423 to 430 in rat VGF (SQEEAPGH; synthetic Peptide 8, VGF-related peptide, rat VGF positions 423-430)	–	–	–	luminescence was observed	luminescence was observed	luminescence was observed	luminescence was observed	–	–	luminescence was observed	–	–	–	–	–	increase of intracellular calcium concentration	increase of intracellular calcium concentration	luminescence was observed

From patent publication US20100075343A1, “NOVEL PEPTIDES” (priority 2007, published 2010)
